Measurements reported in US20230416314A1, “MODIFIED HIGH MOLECULAR WEIGHT GLUTENIN SUBUNIT AND USES THEREOF” (Ukko Inc., priority 2020, published 2023).
Like-named read-outs stand apart in the source and are kept apart here. Residues, ends and D or L forms follow the SMILES beside them. No end group written: not given here.

Columns and labels:
[1] = target: HLA-DQ2.5 (Homo sapiens, UniProt P01909+P01920, A45G/A70V/D89A/E106A/E77G/E98D/H199R/L107V/N214S/P84L/P87L/T103K/T109R/T172A/T60S/V78E/V99I/Y58L/Y62S/Y69I/Y79F); experiment: MHC II/peptide competition binding assay, HLA-DQ2.5
Procedure: (§1) One skilled in the art would appreciate that the 15-mers used included shorter de-epitoped high molecular weight glutenin peptide sequences (mutated repeating antigenic units), as described throughout. For example, Table 2 provides a listing of 15-mers and the shorter mutated repeating antigenic units present therein. […] MHC II molecules were purified by affinity chromatography, and peptides were radiolabeled using the chloramine T method. After an incubation period, the bound and unbound radiolabeled species were separated, and their relative amounts were determined by either size-exclusion gel-filtration chromatography or monoclonal antibody capture of MHC. The percent of bound radioactivity was then determined.

[2] = target: HLA-DQ8 (Homo sapiens, UniProt P01909+P01920, A209T/A45G/C70Q/D89A/DUP78-78/E183D/E77G/F237L/G63E/H199R/I129T/K197E/L178F/L74F/L98V/Q57E/Q76R/S185I/S97I/T217I/T49S/V73L/Y58L); experiment: MHC II/peptide competition binding assay, HLA-DQ8
Procedure: as §1

[3] = target: HLA-DQ7.5 (Homo sapiens, UniProt P01909+P01920); experiment: MHC II/peptide competition binding assay, HLA-DQ7.5
Procedure: The peptides were synthesized as purified material on the 2 mg scale with free acid C-termini (A&A labs, USA). One skilled in the art would appreciate that the 15-mers used included shorter de-epitoped high molecular weight glutenin peptide sequences (mutated repeating antigenic units), as described throughout. For example, Table 2 provides a listing of 15-mers and the shorter mutated repeating antigenic units present therein.
Briefly, competition assays using different concentrations of wild-type (WT) and modified glutenin peptides were conducted by diluting the peptides in NP40 buffer, and incubation for 2-4 days with purified MHC II and a radiolabeled known MHC binding peptide (peptide probe). MHC II molecules were purified by affinity chromatography, and peptides were radiolabeled using the chloramine T method. After an incubation period, the bound and unbound radiolabeled species were separated, and their relative amounts were determined by either size-exclusion gel-filtration chromatography or monoclonal antibody capture of MHC. The percent of bound radioactivity was then determined.

[4] = target: HLA-DQ2.2 (Homo sapiens, UniProt P01909+P01920, A45G/A70V/C70K/D167G/D89A/E106A/E183D/E77G/E98D/F237L/F77L/G63E/H199R/I129T/K197E/L107V/L178F/L74F/N214S/P84L/P87L/Q57E/Q76R/R75H/S185I/S97I/T103K/T109R/T172A/T60S/V73L/V78E/V99I/Y48F/Y58L/Y62S/Y69I/Y79F); experiment: MHC II/peptide competition binding assay, HLA-DQ2.2; conditions: Table 3; 15-mer peptides; >40000 signifies binding is undetectable by assay
Procedure: as §1

[5] = target: HLA-DQ2.5; experiment: MHC II competition binding assay (purified MHC II, radiolabeled probe peptide as competitor)
[6] = Table 3, 15-mer peptides, >40000 signifies binding is undetectable by assay

Row | Molecule | IC50 [1, 6] | IC50 [2, 6] | IC50 [5] | also measured
1 | C[C@@H](O)[C@H](NC(=O)[C@@H]1CCCN1C(=O)[C@H](Cc1ccc(O)cc1)NC(=O)[C@H](Cc1ccc(O)cc1)NC(=O)CNC(=O)[C@H](CCC(N)=O)NC(=O)[C@H](CCC(N)=O)NC(=O)CNC(=O)[C@@H](N)CCC(N)=O)C(=O)N[C@@H](CO)C(=O)N1CCC[C@H]1C(=O)N[C@@H](CCC(N)=O)C(=O)N[C@@H](CCC(N)=O)C(=O)N[C@@H](CO)C(=O)NCC(=O)O [P1a, reference compound] (H-QGQQGYYPTSPQQSG-OH; N-terminus assumed) | 29.8 µM | 14.2 µM |  | 
2 | C[C@@H](O)[C@H](NC(=O)[C@@H]1CCCN1C(=O)[C@H](Cc1ccc(O)cc1)NC(=O)[C@H](Cc1ccc(O)cc1)NC(=O)CNC(=O)[C@H](CCC(=O)O)NC(=O)[C@H](CCC(N)=O)NC(=O)CNC(=O)[C@@H](N)CCC(N)=O)C(=O)N[C@@H](CO)C(=O)N1CCC[C@H]1C(=O)N[C@@H](CCC(=O)O)C(=O)N[C@@H](CCC(N)=O)C(=O)N[C@@H](CO)C(=O)NCC(=O)O [P1b, reference compound] (H-QGQEGYYPTSPEQSG-OH; N-terminus assumed) | 3.29 µM | 3.76 µM |  | 
3 | C[C@H](NC(=O)CNC(=O)[C@@H](N)CCC(N)=O)C(=O)N[C@@H](C)C(=O)NCC(=O)N[C@@H](Cc1ccc(O)cc1)C(=O)N[C@@H](Cc1ccc(O)cc1)C(=O)N1CCC[C@H]1C(=O)N[C@H](C(=O)N[C@@H](CO)C(=O)N1CCC[C@H]1C(=O)N[C@@H](CCCNC(=N)N)C(=O)N[C@@H](CCC(N)=O)C(=O)N[C@@H](CO)C(=O)NCC(=O)O)[C@@H](C)O [P1c] (H-QGAAGYYPTSPRQSG-OH) | > 40 µM | > 40 µM |  | IC50 [3, 6]: 19.9 µM
4 | C[C@@H](O)[C@H](NC(=O)[C@@H]1CCCN1C(=O)[C@H](CC(=O)O)NC(=O)[C@H](Cc1ccc(O)cc1)NC(=O)CNC(=O)[C@H](CO)NC(=O)[C@H](CCC(N)=O)NC(=O)CNC(=O)[C@@H](N)CCC(N)=O)C(=O)N[C@@H](CO)C(=O)N1CCC[C@H]1C(=O)N[C@H](C(=O)N[C@@H](CCC(N)=O)C(=O)N[C@@H](CO)C(=O)NCC(=O)O)[C@@H](C)O [P1d] (H-QGQSGYDPTSPTQSG-OH) | > 40 µM | > 40 µM |  | IC50 [3, 6]: > 40 µM; IC50 [4]: > 40 µM
5 | C[C@@H](O)[C@H](NC(=O)[C@@H]1CCCN1C(=O)[C@H](Cc1ccc(O)cc1)NC(=O)[C@H](Cc1ccc(O)cc1)NC(=O)[C@H](CCCNC(=N)N)NC(=O)[C@@H]1CCCN1C(=O)[C@H](CCC(N)=O)NC(=O)CNC(=O)[C@@H](N)CCC(N)=O)C(=O)N[C@@H](CO)C(=O)N1CCC[C@H]1C(=O)N[C@@H](CCCNC(=N)N)C(=O)N[C@@H](CCC(N)=O)C(=O)N[C@@H](CO)C(=O)NCC(=O)O [P1e] (H-QGQPRYYPTSPRQSG-OH) | 33.2 µM | 32.5 µM |  | IC50 [3, 6]: 19.4 µM
6 | CC(C)C[C@H](NC(=O)[C@H](CO)NC(=O)[C@@H](NC(=O)[C@@H]1CCCN1C(=O)[C@H](Cc1ccc(O)cc1)NC(=O)[C@H](Cc1ccc(O)cc1)NC(=O)CNC(=O)[C@H](Cc1c[nH]cn1)NC(=O)[C@H](CCC(N)=O)NC(=O)CNC(=O)[C@@H](N)CCC(N)=O)[C@@H](C)O)C(=O)N[C@@H](Cc1c[nH]cn1)C(=O)N[C@@H](CCC(N)=O)C(=O)N[C@@H](CO)C(=O)NCC(=O)O [P1f] (H-QGQHGYYPTSLHQSG-OH) | > 40 µM | > 40 µM |  | IC50 [3, 6]: > 40 µM; IC50 [4]: > 40 µM
7 | C[C@@H](O)[C@H](NC(=O)[C@@H]1CCCN1C(=O)[C@H](CC(=O)O)NC(=O)[C@H](CC(N)=O)NC(=O)CNC(=O)[C@H](CCC(=O)O)NC(=O)[C@H](CCC(N)=O)NC(=O)CNC(=O)[C@@H](N)CCC(N)=O)C(=O)NCC(=O)N1CCC[C@H]1C(=O)N[C@@H](CCC(=O)O)C(=O)N[C@@H](CCC(N)=O)C(=O)N[C@@H](CO)C(=O)NCC(=O)O [P1g] (H-QGQEGNDPTGPEQSG-OH) | > 40 µM | > 40 µM |  | IC50 [3, 6]: > 40 µM; IC50 [4]: > 40 µM
8 | C[C@H](NC(=O)[C@@H]1CCCN1C(=O)CNC(=O)[C@H](CCCNC(=N)N)NC(=O)CNC(=O)[C@H](CCC(=O)O)NC(=O)[C@H](CCC(N)=O)NC(=O)CNC(=O)[C@@H](N)CCC(N)=O)C(=O)N[C@@H](CO)C(=O)N1CCC[C@H]1C(=O)N[C@@H](CCCNC(=N)N)C(=O)N[C@@H](CCC(N)=O)C(=O)N[C@@H](CO)C(=O)NCC(=O)O [SEQ ID NO: 145] (H-QGQEGRGPASPRQSG-OH) |  |  |  | IC50 [3]: > 40 µM
9 | CC(C)C[C@H](NC(=O)[C@H](CO)NC(=O)[C@@H](NC(=O)[C@@H]1CCCN1C(=O)[C@H](CC(=O)O)NC(=O)[C@H](Cc1ccc(O)cc1)NC(=O)CNC(=O)[C@H](Cc1c[nH]cn1)NC(=O)[C@H](CCC(N)=O)NC(=O)CNC(=O)[C@@H](N)CCC(N)=O)[C@@H](C)O)C(=O)N[C@@H](CCC(=O)O)C(=O)N[C@@H](CCC(N)=O)C(=O)N[C@@H](CO)C(=O)NCC(=O)O [SEQ ID NO: 173] (H-QGQHGYDPTSLEQSG-OH; N-terminus assumed) |  |  |  | IC50 [1]: 15.9 µM; IC50 [2]: > 40 µM
10 | C[C@H](NC(=O)[C@@H]1CCCN1C(=O)CNC(=O)[C@H](Cc1c[nH]cn1)NC(=O)CNC(=O)[C@H](CCC(=O)O)NC(=O)[C@H](CCC(N)=O)NC(=O)CNC(=O)[C@@H](N)CCC(N)=O)C(=O)N[C@@H](CO)C(=O)N1CCC[C@H]1C(=O)N1CCC[C@H]1C(=O)N[C@@H](CCC(N)=O)C(=O)N[C@@H](CO)C(=O)NCC(=O)O [SEQ ID NO: 175] (H-QGQEGHGPASPPQSG-OH; N-terminus assumed) |  |  |  | IC50 [1]: 22.1 µM; IC50 [2]: > 40 µM
11 | NC(=O)CC[C@H](NC(=O)CNC(=O)[C@@H](N)CCC(N)=O)C(=O)N[C@@H](CCC(=O)O)C(=O)N1CCC[C@H]1C(=O)N[C@@H](Cc1ccc(O)cc1)C(=O)NCC(=O)N1CCC[C@H]1C(=O)N[C@@H](CO)C(=O)N[C@@H](CO)C(=O)N1CCC[C@H]1C(=O)N[C@@H](CCC(=O)O)C(=O)N[C@@H](CCC(N)=O)C(=O)N[C@@H](CO)C(=O)NCC(=O)O [SEQ ID NO: 176] (H-QGQEPYGPSSPEQSG-OH) |  |  |  | IC50 [3]: 28.6 µM
12 | C[C@@H](O)[C@H](NC(=O)[C@@H]1CCCN1C(=O)CNC(=O)[C@H](Cc1ccc(O)cc1)NC(=O)CNC(=O)[C@H](CCC(=O)O)NC(=O)[C@H](CCC(N)=O)NC(=O)CNC(=O)[C@@H](N)CCC(N)=O)C(=O)N[C@@H](CO)C(=O)NCC(=O)N[C@@H](CCC(=O)O)C(=O)N[C@@H](CCC(N)=O)C(=O)N[C@@H](CO)C(=O)NCC(=O)O [SEQ ID NO: 177] (H-QGQEGYGPTSGEQSG-OH; N-terminus assumed) |  |  |  | IC50 [1]: 25.3 µM; IC50 [2]: > 40 µM
13 | C[C@@H](O)[C@H](NC(=O)[C@@H]1CCCN1C(=O)[C@H](Cc1ccc(O)cc1)NC(=O)[C@H](Cc1ccc(O)cc1)NC(=O)CNC(=O)[C@@H]1CCCN1C(=O)[C@H](CCC(N)=O)NC(=O)CNC(=O)[C@@H](N)CCC(N)=O)C(=O)N[C@@H](CO)C(=O)N1CCC[C@H]1C(=O)N[C@@H](Cc1c[nH]cn1)C(=O)N[C@@H](CCC(N)=O)C(=O)N[C@@H](CO)C(=O)NCC(=O)O [SEQ ID NO: 178] (H-QGQPGYYPTSPHQSG-OH; N-terminus assumed) |  |  |  | IC50 [1]: 29.4 µM; IC50 [2]: > 40 µM
14 | C[C@@H](O)[C@H](NC(=O)[C@@H]1CCCN1C(=O)[C@H](Cc1ccc(O)cc1)NC(=O)[C@H](Cc1ccc(O)cc1)NC(=O)CNC(=O)[C@H](CO)NC(=O)[C@H](CCC(N)=O)NC(=O)CNC(=O)[C@@H](N)CCC(N)=O)C(=O)N[C@@H](CO)C(=O)N1CCC[C@H]1C(=O)N[C@H](C(=O)N[C@@H](CCC(N)=O)C(=O)N[C@@H](CO)C(=O)NCC(=O)O)[C@@H](C)O [SEQ ID NO: 179] (H-QGQSGYYPTSPTQSG-OH; N-terminus assumed) |  |  |  | IC50 [1]: 29.7 µM; IC50 [2]: > 40 µM
15 | QGQHGYDPTSLEQSG-OH [modified 15-mer peptide … (SEQ ID NO: 173)] |  |  | 15.9 µM | 
16 | QGQKGYYPTSPHQSG-OH [modified 15-mer peptide … (SEQ ID NO: 143)] |  |  | 34.4 µM | 
17 | QGQEGHGPASPPQSG-OH [modified 15-mer peptide … (SEQ ID NO: 175)] |  |  | 22.1 µM | 
18 | QGQSGYYPTSPTQSG-OH [modified 15-mer peptide … (SEQ ID NO: 179)] |  |  | 29.7 µM | 
19 | QGQPGYYPTSPHQSG-OH [modified 15-mer peptide … (SEQ ID NO: 178)] |  |  | 29.4 µM | 
20 | QGQEGYGPTSGEQSG-OH [modified 15-mer peptide … (SEQ ID NO: 177)] |  |  | 25.3 µM | 
